The subject of one assay is 1a-H77 replicon cells. Nature of the assay: HCV 1a replicon inhibitory activity (Renilla luciferase). It counts as cell-based, hepatitis C virus. To be noted: read-out: IC50 value (95% Confidence Intervals) pM Replicon 1A assay. The procedure:
(§1) Test compounds were solubilised to 4 mM in 100% DMSO. Dilutions were made to the desired starting concentration in 100% DMSO and then 1 in 3 dilutions made, again in 100% DMSO. 0.5 μl of each sample was added to 384-well assay plates. White Lumitrac (Greiner) plates were used for the 1a and 1b replicon assays and black, clear bottomed (Greiner) plates were used for the WST-1 cytotoxity assay.
1a-H77 replicon cells (licensed from Apath LLC) were resuspended to a concentration of 1.4×10^5 cells/ml by addition of pre-warmed assay medium (Dulbecco's Modified Eagle's Medium (DMEM)+10% fetal calf serum (FCS)). 50 μl of this suspension was added to each well of a 384-well assay plate (Lumitrac, Greiner), already containing 0.5 μl of test compound.
All plates were covered with gas permeable seals and incubated at 37° C., 5% CO2 for 48 hours. After 48 hours, the assay plate was removed from the incubator and left to cool to room temperature for 15 to 30 mins. Medium was removed from the wells and 5 μl 1× lysis buffer (from Promega's Renilla Luciferase assay kit, E2820) was added to each well. The plate was incubated at room temperature for 15 mins then 15 μl 1×Assay Substrate (from the same kit) was added to each well. Luminescence was read immediately using an EnVision (Perkin Elmer) plate reader. The half maximal effective concentration (1050) values were calculated by constructing log concentration-response curves for each compound.
On the technique in general: In antiviral work, replicon cells carry a viral genome segment that copies itself.

Another assay concerns 1b (con1) replicon cells. Put plainly: HCV 1b replicon inhibitory activity (luciferase, Britelite Plus). Particulars: read-out: IC50 value (95% Confidence Intervals) pM Replicon 1B assay. Type of assay: cell-based, hepatitis C virus. As for the experimental part: as §1
1b (con1) replicon cells (pFK1389lucubineo/NS3-3′/ET/9B, licensed from Ralf Bartenschlager, University of Heidelberg) were resuspended to a concentration of 1.4×10^5 cells/ml by addition of pre-warmed medium (DMEM+10% FCS). 50 μl of this suspension was added to each well of a 384-well assay plate (Lumitrac, Greiner) already containing 0.5 μl of test compound.
All plates were covered with gas permeable seals and incubated at 37° C., 5% CO2 for 48 hours. After 48 hours, the plate was removed from the incubator and left to cool to room temperature for 15-30 mins. 35 ul of reconstituted Lyophilised Britelite Plus Substrate (PerkinElmer, 6016767) to medium was added to each well. Luminescence was read after 1 min but before 15 mins on an EnVision (Perkin Elmer) plate reader. The half maximal effective concentration (1050) values were calculated by constructing log concentration-response curves for each compound.

[1] abbreviates: geometric mean, 95% confidence intervals in parentheses, 48 hours, medium with 10% FCS.
Where [2] appears, read: Hepatitis C virus, geometric mean, 95% confidence intervals in parentheses, 48 hours, medium with 10% FCS.

Counter-ions that a name gives are not always drawn. Like-named read-outs stand apart in the source and are kept apart here.

For orientation: IC50 means the concentration at which inhibition is half-maximal. On to `COC(=O)N[C@H](C(=O)N1CCC[C@H]1c1nc(-c2ccc(-c3cnc4cc(-c5cnc([C@@H]6CCCN6C(=O)CNC(=O)CNC(C)=O)[nH]5)ccc4n3)cc2)c[nH]1)C(C)C` [Example 36, Methyl {(2S)-1-[(2S)-2-{4-[4-(6-{2-[(2S)-1-(N-acetylglycylglycyl)pyrrolidin-2-yl]-1H-imidazol-5-yl}quinoxalin-2-yl)phenyl]-1H-imidazol-2-yl}pyrrolidin-1-yl]-3-methyl-1-oxobutan-2-yl}carbamate trifluoroacetic acid salt], for which the IC50 is 29800 pM in the assay on 1a-H77 replicon cells (Hepatitis C virus, 48 h) and 1740 pM in the assay with 1b (con1) replicon cells (Hepatitis C virus, 48 h).
As to `COC(=O)N[C@H](C(=O)N1CCC[C@H]1c1nc(-c2ccc(-c3cnc4cc(-c5cnc([C@@H]6CCCN6C(=O)[C@@H](C)NC(=O)OC)[nH]5)ccc4n3)cc2)c[nH]1)C(C)C` [Example 53, Methyl {(2S)-1-[(2S)-2-(4-{4-[6-(2-{(2S)-1-[N-(methoxycarbonyl)-D-alanyl]pyrrolidin-2-yl}-1H-imidazol-5-yl)quinoxalin-2-yl]phenyl}-1H-imidazol-2-yl)pyrrolidin-1-yl]-3-methyl-1-oxobutan-2-yl} carbamate trifluoroacetic acid salt], the IC50 in the assay with 1a-H77 replicon cells (setting [1]) was found to be 646 pM; in the assay on 1b (con1) replicon cells (setting [1]) it was 21.1 pM.
For `CC[C@@H](NC(=O)OC)C(=O)N1CCC[C@H]1c1ncc(-c2ccc3nc(-c4ccc(-c5c[nH]c([C@@H]6CCCN6C(=O)[C@@H](NC(=O)OC)C(C)C)n5)cc4)cnc3c2)[nH]1` [Example 59, Methyl {(2S)-1-[(2S)-2-{4-[4-(6-{2-[(2S)-1-{(2R)-2-[(methoxycarbonyl)amino]butanoyl}pyrrolidin-2-yl]-1H-imidazol-5-yl}quinoxalin-2-yl)phenyl]-1H-imidazol-2-yl}pyrrolidin-1-yl]-3-methyl-1-oxobutan-2-yl} carbamate trifluoroacetic acid salt], the IC50 turned out to be 2390 pM with 1a-H77 replicon cells (setting [1]) and 97.5 pM with 1b (con1) replicon cells (setting [1]).
With `COC(=O)N[C@H](C(=O)N1CCC[C@H]1c1ncc(-c2ccc(-c3nc(O)c4cc(-c5cnc([C@@H]6CCCN6C(=O)[C@@H](NC(=O)OC)C(C)C)[nH]5)ccc4n3)cc2)[nH]1)C(C)C` [Example 15, Methyl {(2S)-1-[(2S)-2-{5-[4-(4-hydroxy-6-{2-[(2S)-1-{(2S)-2-[(methoxycarbonyl)amino]-3-methylbutanoyl}pyrrolidin-2-yl]-1H-imidazol-5-yl}quinazolin-2-yl)phenyl]-1H-imidazol-2-yl}pyrrolidin-1-yl]-3-methyl-1-oxobutan-2-yl}carbamate], the IC50 was found to be 194 pM with 1a-H77 replicon cells (setting [2]) and 102 pM in the assay with 1b (con1) replicon cells (setting [2]).
`COC(=O)N[C@H](C(=O)N1CCC[C@H]1c1nc(-c2ccc(-c3cnc4cc(-c5cnc([C@@H]6CCCN6C(=O)CNC(=O)CN6C(=O)CCc7ccccc76)[nH]5)ccc4n3)cc2)c[nH]1)C(C)C` [Example 45, Methyl {(2S)-3-methyl-1-oxo-1-[(2S)-2-{4-[4-(6-[2-[(2S)-1-{N-[(2-oxo-3,4-dihydroquinolin-1(2H)-yl)acetyl]glycyl}pyrrolidin-2-yl]-1H-imidazol-5-yl}quinoxalin-2-yl)phenyl]-1H-imidazol-2-yl}pyrrolidin-1-yl]butan-2-yl}carbamate trifluoroacetic acid salt]: the half-inhibitory concentration (IC50) turned out to be 20000 pM in the assay with 1a-H77 replicon cells (Hepatitis C virus, 48 h) and 507 pM in the assay on 1b (con1) replicon cells (Hepatitis C virus, 48 h).
Consider `COC(=O)N[C@H](C(=O)N1CCC[C@H]1c1nc(-c2ccc(-c3cnc4cc(-c5cnc([C@@H]6CCCN6C(=O)[C@@H](Cc6c[nH]c7ccccc67)NC(=O)OC)[nH]5)ccc4n3)cc2)c[nH]1)C(C)C` [Example 82, Methyl {(2S)-1-[(2S)-2-{4-[4-(6-{2-[(2S)-1-{(2R)-3-(1H-indol-3-yl)-2-[(methoxycarbonyl)amino]propanoyl}pyrrolidin-2-yl]-1H-imidazol-5-yl}quinoxalin-2-yl)phenyl]-1H-imidazol-2-yl}pyrrolidin-1-yl]-3-methyl-1-oxobutan-2-yl}carbamate trifluoroacetic acid salt], for which the IC50 with 1a-H77 replicon cells (Hepatitis C virus, 48 h) came out at 490 pM; in the assay with 1b (con1) replicon cells (Hepatitis C virus, 48 h), 190 pM.
On to `COC(=O)N[C@H](C(=O)N1CCC[C@H]1c1nc(-c2ccc(-c3ccc4cc(-c5cnc([C@@H]6CCCN6C(=O)[C@@H](NC(=O)OC)C(C)C)[nH]5)ccc4c3)nc2)c[nH]1)C(C)C` [Example 6, Methyl {(2S)-1-[(2S)-2-{5-[6-(5-{2-[(2S)-1-{(2S)-2-[(methoxycarbonyl)amino]-3-methyl-butanoyl}pyrrolidin-2-yl]-1H-imidazol-4-yl}pyridin-2-yl)naphthalen-2-yl]-1H-imidazol-2-yl}pyrrolidin-1-yl]-3-methyl-1-oxobutan-2-yl}carbamate], for which the IC50 was 56.4 pM in the assay on 1a-H77 replicon cells (setting [2]) and 3.51 pM in the assay with 1b (con1) replicon cells (setting [2]).
On to `COC(=O)N[C@H](C(=O)N1CCC[C@H]1c1nc(-c2ccc(-c3cnc4cc(-c5cnc([C@@H]6CCCN6C(=O)CNC(=O)c6ccc7[nH]cnc7c6)[nH]5)ccc4n3)cc2)c[nH]1)C(C)C` [Example 43, Methyl {(2S)-1-[(2S)-2-(4-{4-[6-(2-{(2S)-1-[N-(1H-benzimidazol-5-ylcarbonyl)glycyl]pyrrolidin-2-yl}-1H-imidazol-5-yl)quinoxalin-2-yl]phenyl}-1H-imidazol-2-yl)pyrrolidin-1-yl]-3-methyl-1-oxobutan-2-yl}carbamate trifluoroacetic acid salt], for which the IC50 in the assay with 1a-H77 replicon cells (Hepatitis C virus, 48 h) worked out at 787 pM; in the assay on 1b (con1) replicon cells (Hepatitis C virus, 48 h), 388 pM.
For `COC(=O)N[C@H](C(=O)N1CCC[C@H]1c1nc(-c2ccc(-c3cnc4cc(-c5cnc([C@@H]6CCCN6C(=O)CNC(=O)c6cc(C)on6)[nH]5)ccc4n3)cc2)c[nH]1)C(C)C` [Example 42, Methyl {(2S)-3-methyl-1-[(2S)-2-{4-[4-(6-{2-[(2S)-1-{N-[(5-methylisoxazol-3-yl)carbonyl]glycyl}pyrrolidin-2-yl]-1H-imidazol-5-yl}quinoxalin-2-yl)phenyl]-1H-imidazol-2-yl}pyrrolidin-1-yl]-1-oxobutan-2-yl}carbamate trifluoroacetic acid salt], the IC50 in the assay with 1a-H77 replicon cells (Hepatitis C virus, 48 h) was 2870 pM; in the assay with 1b (con1) replicon cells (Hepatitis C virus, 48 h) it was 247 pM.
On the same counts, the results for `COC(=O)N[C@H](C(=O)N1CCC[C@H]1c1nc(-c2ccc(-c3cnc4cc(-c5cnc([C@@H]6CCCN6C(=O)[C@H](NC(=O)OC)C(C)C)[nH]5)ccc4n3)cc2)c[nH]1)C(C)C` [Example 61, Methyl {(2S)-1-[(2S)-2-{4-[4-(6-{2-[(2S)-1-{(2R)-2-[(methoxycarbonyl)amino]-3-methylbutanoyl}pyrrolidin-2-yl]-1H-imidazol-5-yl}quinoxalin-2-yl)phenyl]-1H-imidazol-2-yl}pyrrolidin-1-yl]-3-methyl-1-oxobutan-2-yl}carbamate trifluoroacetic acid salt] are 6400 pM and 83.5 pM.
Regarding `COC(=O)NC(C(=O)N1CCC[C@H]1c1ncc(-c2ccc3nc(-c4ccc(-c5c[nH]c([C@@H]6CCCN6C(=O)[C@@H](NC(=O)OC)C(C)C)n5)cc4)cnc3c2)[nH]1)C1CCCC1` (stereo partly drawn) [Example 66, Methyl {(2S)-1-[(2S)-2-{4-[4-(6-{2-[(2S)-1-{cyclopentyl[(methoxycarbonyl)amino]acetyl}pyrrolidin-2-yl]-1H-imidazol-5-yl}quinoxalin-2-yl)phenyl]-1H-imidazol-2-yl}pyrrolidin-1-yl]-3-methyl-1-oxobutan-2-yl} carbamate trifluoroacetic acid salt], the IC50 in the assay on 1a-H77 replicon cells (setting [1]) is 1720 pM; in the assay on 1b (con1) replicon cells (setting [1]) it was 21.7 pM.

Values taken from patent US20110112100A1, “Hepatitis C Virus Inhibitors” (priority 2009, published 2011).
